Reference: patent publication US7687523B2, “3-heteroaryl-3,9-diazabicyclo[3.3.1]nonane derivatives as nicotinic acetylcholine receptor agonists” (Neurosearch A/S, priority 2006, dated 2010)
Like-named read-outs stand apart in the source and are kept apart here.

Target: nAChRs comprised of α4 and β2 subunits (Rattus norvegicus, UniProt P09483+P12390)
Assay: In vitro inhibition of 3H-cytisine binding
Source text: In Vitro Inhibition of ^3H-Cytisine Binding
Molecular biology studies have elucidated that there are at least ten nicotinic receptor genes in the brain. The predominant subtype with high affinity for nicotine is comprised of α4 and β2 subunits. nAChRs of the latter type can selectively be labelled by the nicotine agonist ^3H-cytisine.
A standard assay for determining in vitro inhibition of ^3H-cytisine binding is described in e.g. WO 02/096911. When subjected to this test the compounds of the invention show inhibitory activity on the micromolar or sub-micromolar range.

Chain of nAChRs comprised of α4 and β2 subunits (P09483 31-630): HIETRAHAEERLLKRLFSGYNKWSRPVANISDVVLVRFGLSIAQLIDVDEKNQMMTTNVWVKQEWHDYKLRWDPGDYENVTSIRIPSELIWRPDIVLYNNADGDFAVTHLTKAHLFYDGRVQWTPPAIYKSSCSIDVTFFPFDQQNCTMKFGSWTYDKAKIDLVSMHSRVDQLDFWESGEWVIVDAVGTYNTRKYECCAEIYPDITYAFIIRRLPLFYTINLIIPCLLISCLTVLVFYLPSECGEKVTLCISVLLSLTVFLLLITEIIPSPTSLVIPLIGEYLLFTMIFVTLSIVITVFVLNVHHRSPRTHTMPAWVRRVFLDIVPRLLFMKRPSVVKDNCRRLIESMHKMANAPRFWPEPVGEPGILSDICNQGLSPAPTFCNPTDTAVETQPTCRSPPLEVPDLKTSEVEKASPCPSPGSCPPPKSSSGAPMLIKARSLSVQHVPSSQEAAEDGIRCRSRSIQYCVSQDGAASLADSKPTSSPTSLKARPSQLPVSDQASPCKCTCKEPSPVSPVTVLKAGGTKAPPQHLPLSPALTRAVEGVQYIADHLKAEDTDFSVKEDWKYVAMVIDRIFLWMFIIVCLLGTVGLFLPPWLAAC
Chain of nAChRs comprised of α4 and β2 subunits (P12390 25-500): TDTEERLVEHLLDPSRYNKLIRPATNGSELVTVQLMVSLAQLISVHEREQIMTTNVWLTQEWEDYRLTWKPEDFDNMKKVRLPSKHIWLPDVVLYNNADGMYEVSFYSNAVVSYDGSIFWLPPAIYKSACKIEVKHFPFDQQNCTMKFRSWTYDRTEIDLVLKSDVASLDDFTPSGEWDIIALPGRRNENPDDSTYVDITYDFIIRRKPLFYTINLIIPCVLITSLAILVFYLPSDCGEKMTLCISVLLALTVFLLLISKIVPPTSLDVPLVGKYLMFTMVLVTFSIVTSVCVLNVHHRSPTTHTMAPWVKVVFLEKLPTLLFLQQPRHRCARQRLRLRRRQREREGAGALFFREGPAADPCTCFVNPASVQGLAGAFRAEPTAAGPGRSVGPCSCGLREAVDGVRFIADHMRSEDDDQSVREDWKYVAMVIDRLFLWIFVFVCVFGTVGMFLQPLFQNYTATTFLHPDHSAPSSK

Compound | IC50 | IC50 (3H-cytisine as radioligand, standard assay as described in WO 02/096911, read-out: In vitro Inhibition of 3H-cytisine Binding IC50)
CN1C2CCCC1CN(c1cncc(Cl)c1)C2 [Compound A1, 3-(5-Chloro-pyridin-3-yl)-9-methyl-3,9-diaza-bicyclo[3.3.1]nonane] | 6.3 nM | –
c1cncc(N2CC3CCCC(C2)N3)c1 [Compound B1, 3-Pyridin-3-yl-3,9-diaza-bicyclo[3.3.1]nonane] | 2.5 nM | –
CN1C2CCCC1CN(c1cccnn1)C2 [Compound C1, 9-Methyl-3-pyridazin-3-yl-3,9-diaza-bicyclo[3.3.1]nonane] | – | 460 nM
